Measurements as given in PMC12030165, “Bioactivity of Synthesized Trifluoromethyl Thioxanthone Analogues” (Pharmaceuticals, 2025).

Assays:
[1] = DPPH antioxidant activity assay
Description: To evaluate four synthesized compounds and Trolox (as a positive control), a 1 mg/mL concentration in methanol was first made from phenyl alcohol. The prepared solution was produced in concentrations of 1, 2, 3, 5, 7, 10, 20, 30, 50, and 80 µg/mL. The DPPH reagent was then diluted in 0.002% w/v methanol and combined in a […] ratio with the previously produced working concentrations. A blank solution of 100% methanol was used. All solutions were incubated at room temperature for 30 min in a dark environment. Their absorbance values were then determined using a UV-visible spectrophotometer set at a wavelength of 517 nm. The antioxidant capacity of each chemical compound fraction and Trolox were calculated using the following formula:% inhibition = ((Abs blank − Abs Sample)/Abs Blank) × 100 where:
Abs blank: Absorbance value of the control reaction containing all reagents except the synthesized compound.
Abs sample: The absorbance value of the synthesized compound [48].

[2] = target: T1, porcine pancreatic α-amylase (Sus scrofa, UniProt P00690); assay: α-Amylase inhibition assay (DNSA); assay type: biochemical
T1 construct: purchased MP Biochemicals (Illkirch, France)
T1 sequence (P00690 16-511): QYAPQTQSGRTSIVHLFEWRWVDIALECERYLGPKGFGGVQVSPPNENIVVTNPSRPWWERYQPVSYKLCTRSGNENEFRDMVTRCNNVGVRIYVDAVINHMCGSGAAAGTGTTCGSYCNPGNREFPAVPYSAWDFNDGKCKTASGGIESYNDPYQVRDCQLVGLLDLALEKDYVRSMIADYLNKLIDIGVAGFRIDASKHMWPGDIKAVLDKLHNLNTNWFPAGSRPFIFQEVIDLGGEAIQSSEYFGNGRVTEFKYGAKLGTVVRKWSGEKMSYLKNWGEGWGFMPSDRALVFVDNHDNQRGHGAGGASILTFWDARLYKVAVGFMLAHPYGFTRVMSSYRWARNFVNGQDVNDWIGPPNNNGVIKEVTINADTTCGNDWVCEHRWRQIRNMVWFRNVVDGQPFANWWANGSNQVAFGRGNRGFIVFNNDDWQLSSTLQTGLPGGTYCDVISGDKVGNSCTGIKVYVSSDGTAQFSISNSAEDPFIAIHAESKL
Description: Each product was initially dissolved in a few milliliters of 10% DMSO and then further diluted in a buffer solution (0.02 M Na2HPO4/NaH2PO4, 0.006 M NaCl, at pH 6.9) to prepare stock solutions at a concentration of 1000 µg/mL. From these stock solutions, further dilutions were made to obtain concentrations of 20, 50, and 70 µg/mL, using 10% DMSO as a diluent. A porcine pancreatic α-amylase enzyme solution was prepared at 2 units/mL concentration in 10% DMSO. For the working solutions, 0.2 mL of the enzyme solution was mixed with 0.2 mL of each product, and the mixture was incubated for 10 min at 30 °C. Following the incubation, 0.2 mL of a freshly prepared 1% starch aqueous solution was added to each working solution, which was then incubated for an additional 3 min. The reaction was halted by adding 0.2 mL of dinitrosalicylic acid (DNSA) yellow color reagent. Each working solution was diluted with 5 mL of distilled water and boiled for 10 min in a water bath at 90 °C. After cooling the mixture to room temperature, the absorbance was measured at 540 nm. The blank control was prepared similarly but replaced the product fraction with 0.2 mL of the buffer as mentioned above. Acarbose was used as the standard reference and was subjected to the same experimental procedures. The α-amylase inhibitory activity was calculated using the following equation [49]:% of α amylase inhibition = (AB − AE)/AB × 100%

COX-1 = target: T2, COX-1 (Homo sapiens, UniProt P23219); assay: COX (human) Inhibitor Screening Assay, COX-1; assay type: biochemical
T2 construct: purchased Cayman Chemicals 701230
T2 sequence (P23219 24-599): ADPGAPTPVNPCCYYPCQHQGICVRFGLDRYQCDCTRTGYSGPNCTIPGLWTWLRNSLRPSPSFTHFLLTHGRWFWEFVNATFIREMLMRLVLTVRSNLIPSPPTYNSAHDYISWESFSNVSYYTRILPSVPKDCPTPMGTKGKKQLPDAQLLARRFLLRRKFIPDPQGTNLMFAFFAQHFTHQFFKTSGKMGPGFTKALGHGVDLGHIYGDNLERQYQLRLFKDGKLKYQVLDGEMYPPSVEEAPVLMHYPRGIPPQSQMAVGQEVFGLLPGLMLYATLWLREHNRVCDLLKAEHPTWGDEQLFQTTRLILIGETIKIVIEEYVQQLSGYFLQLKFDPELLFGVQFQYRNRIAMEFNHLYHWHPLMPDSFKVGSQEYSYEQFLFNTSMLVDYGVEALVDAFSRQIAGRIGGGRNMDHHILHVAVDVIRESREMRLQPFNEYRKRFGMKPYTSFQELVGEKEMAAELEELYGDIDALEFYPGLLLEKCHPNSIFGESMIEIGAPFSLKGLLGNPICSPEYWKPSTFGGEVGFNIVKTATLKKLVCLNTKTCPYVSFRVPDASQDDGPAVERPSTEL
Description: Our synthesized compounds’ COX-1 and COX-2 inhibitory activities were evaluated using the COX (human) Inhibitor Screening Assay Kit supplied by Cayman Chemicals (catalog no. 701230, Ann Arbor, MI, USA). The preparation of reagents and testing procedures were conducted according to the manufacturer’s recommendations. Two concentrations of the inhibitors (10 µM and 50 µM) were dissolved in a minimal amount of dimethyl sulfoxide (DMSO) and incubated with a mixture of COX-1 or COX-2 enzyme and heme in a diluted reaction buffer for 10 min at 37 °C. The reaction was initiated by adding 10 µL of arachidonic acid, followed by a two-minute incubation at 37 °C. The reaction was halted by adding 30 µL of stannous chloride solution to each reaction tube and incubating for 5 min at room temperature. The resulting PGF2α, produced by the COX reactions, was quantified using an enzyme-linked immunosorbent assay (ELISA). The 96-well plate was covered with plastic film and incubated for 18 h at room temperature on an orbital shaker. After incubation, the plate was rinsed five times with a wash buffer. Then, Ellman’s reagent (200 µL) was added, and the plate was incubated for approximately 60–90 min at room temperature until the absorbance of the blank well was in the range of 0.3–0.8 at 405 nm. The plate was read using a Unilab Microplate Reader 6000. The inhibitory percentage was calculated for each concentration tested against the control. The IC50 values were derived from the concentration-inhibition response curve, and the selectivity index (SI) was calculated by dividing the IC50 for COX-2 by the IC50 for COX-1 [52].

Which results are given for `OC1(c2ccccc2)c2ccccc2Sc2ccc(C(F)(F)F)cc21` (stereo not drawn) [Compound 1, 9-phenyl-2-(trifluoromethyl)-9H-thioxanthen-9-ol]?
% inhibition of DPPH radical (radical scavenging) ([1]; 1 µg/mL): 7.1 ± 1.2%; % inhibition of DPPH radical (radical scavenging) ([1]; 2 µg/mL): 7.6 ± 2.3%; % inhibition of DPPH radical (radical scavenging) ([1]; 3 µg/mL): 8.2 ± 1.5%; % inhibition of DPPH radical (radical scavenging) ([1]; 5 µg/mL): 8.6 ± 3.1%; % inhibition of DPPH radical (radical scavenging) ([1]; 7 µg/mL): 8.9 ± 2.3%; % inhibition of DPPH radical (radical scavenging) ([1]; 10 µg/mL): 9.3 ± 1.6%; % inhibition of DPPH radical (radical scavenging) ([1]; 20 µg/mL): 9.9 ± 2.5%; % inhibition of DPPH radical (radical scavenging) ([1]; 30 µg/mL): 12.6 ± 3.2%; % inhibition of DPPH radical (radical scavenging) ([1]; 50 µg/mL): 12.9 ± 2.6%; % inhibition of DPPH radical (radical scavenging) ([1]; 80 µg/mL): 16.3 ± 4.3%; IC50 [2]: 283000 nM; IC50 (COX-1): 40.2 ± 0.41 nM

For `OC1(Cc2ccccc2)c2ccccc2Sc2ccc(C(F)(F)F)cc21` (stereo not drawn) [Compound 2, 9-benzyl-2-(trifluoromethyl)-9H-thioxanthen-9-ol], which “% inhibition of DPPH radical (radical scavenging)” value (from here on “% inhibition of DPPH radical”) ([1]; 1 µg/mL) is on record?
The value was 36.3 ± 2.4%.

What about the “% inhibition of DPPH radical” value ([1]; 2 µg/mL) of the same compound?
The value was 37.3 ± 3.9%.

What about the “% inhibition of DPPH radical” value ([1]; 3 µg/mL) of the same compound?
The value was 39.3 ± 4.2%.

And the “% inhibition of DPPH radical” value ([1]; 5 µg/mL)?
Its value is 39.5 ± 3.4%.

And the “% inhibition of DPPH radical” value ([1]; 7 µg/mL)?
Its value is 39.7 ± 3.6%.

What about the “% inhibition of DPPH radical” value ([1]; 10 µg/mL) of the same compound?
Its value is 40.1 ± 4.9%.

And the “% inhibition of DPPH radical” value ([1]; 20 µg/mL)?
The value was 40.7 ± 2.5%.

And the “% inhibition of DPPH radical” value ([1]; 30 µg/mL)?
The value was 40.7 ± 3.8%.

What about the “% inhibition of DPPH radical” value ([1]; 50 µg/mL) of the same compound?
Its value is 41.6 ± 5.1%.

And the “% inhibition of DPPH radical” value ([1]; 80 µg/mL)?
Its value is 42.2 ± 3.9%.

And the IC50 [2]?
The IC50 was 60200 ± 800 nM.

What about the IC50 (COX-1) of the same compound?
The IC50 was 14 ± 0.64 nM.

Which “% inhibition of DPPH radical” value ([1]; 1 µg/mL) does the source give for “S-(9-benzyl-2-(trifluoromethyl)-9H-thioxanthen-9-yl)-L-cysteine [Compound 3]” here?
The value was 31.3 ± 2.3%.

And the “% inhibition of DPPH radical” value ([1]; 2 µg/mL)?
Its value is 36.4 ± 3.5%.

And the “% inhibition of DPPH radical” value ([1]; 3 µg/mL)?
Its value is 39.9 ± 3.6%.

And the “% inhibition of DPPH radical” value ([1]; 5 µg/mL)?
The value was 39.9 ± 4.1%.

And the “% inhibition of DPPH radical” value ([1]; 7 µg/mL)?
Its value is 40.1 ± 3.8%.

What about the “% inhibition of DPPH radical” value ([1]; 10 µg/mL) of the same compound?
The value was 40.2 ± 5.1%.

And the “% inhibition of DPPH radical” value ([1]; 20 µg/mL)?
The value was 40.4 ± 5.2%.

And the “% inhibition of DPPH radical” value ([1]; 30 µg/mL)?
The value was 41.9 ± 4.9%.

And the “% inhibition of DPPH radical” value ([1]; 50 µg/mL)?
Its value is 42.9 ± 3.2%.

What about the “% inhibition of DPPH radical” value ([1]; 80 µg/mL) of the same compound?
The value was 46.6 ± 2.4%.

What about the “IC50 of the α-Amylase inhibition activity” value [2] of the same compound?
The value was “no inhibitory effect”.

What about the IC50 (COX-1) of the same compound?
Its IC50 is 32.5 ± 0.53 nM.
